Test results from ChEMBL document CHEMBL6120948, “Design, Synthesis, and Biological Evaluation of Lysine-Stapled Peptide Inhibitors of p53-MDM2/MDMX Interactions with Potent Antitumor Activity In Vivo” (J Med Chem, 2024).

Assays:
[1] = test system: MCF7; assay: Antiproliferative activity against human MCF7 cells expressing wild-type p53 incubated for 72 hrs by MTT assay; type: functional, cell-based; details: MCF7, 72 h
[2] = Induction of alpha-helical conformation in phosphate buffer at pH 7 at 100 uM by CD analysis; type: physicochemical; details: pH 7, 100 µM
[3] = Antiproliferative activity against human U-87 MG cells expressing wild-type p53 incubated for 72 hrs by MTT assay; type: functional, cell-based, U-87MG ATCC
[4] = Drug distribution in cytoplasm of human HCT-116 cells at 40 uM incubated for 4 hrs by Hoechst 33342/DiD dye based confocal microscopy; type: ADME, subcellular; details: hct-116, 4 h
[5] = Drug distribution in nucleus of human HCT-116 cells at 40 uM incubated for 4 hrs by Hoechst 33342/DiD dye based confocal microscopy; type: ADME, subcellular; details: hct-116, 4 h

CC(=O)N[C@@H](CC(C)C)C(=O)N[C@H](C(=O)N[C@@H](Cc1ccccc1)C(=O)N[C@H]1CCCCNCc2ccc(cc2)CNCCCC[C@@H](C(=O)N[C@@H](CO)C(=O)N[C@@H](C)C(=O)N[C@@H](C)C(N)=O)NC(=O)[C@H](CC(C)C)NC(=O)[C@H](CCC(N)=O)NC(=O)[C@H](C)NC(=O)[C@H](Cc2c[nH]c3ccccc23)NC(=O)[C@H](Cc2ccc(O)cc2)NC(=O)[C@H](Cc2c[nH]cn2)NC1=O)[C@@H](C)O
IC50 [1]: > 160 µM
Activity [2]: 11%
IC50 [3]: > 160 µM

CC(=O)N[C@@H](CC(C)C)C(=O)N[C@H](C(=O)N[C@@H](Cc1ccccc1)C(=O)N[C@H]1CCCCNCc2cccc(c2)CNCCCC[C@@H](C(=O)N[C@@H](CO)C(=O)N[C@@H](C)C(=O)N[C@@H](C)C(N)=O)NC(=O)[C@H](CC(C)C)NC(=O)[C@H](CCC(N)=O)NC(=O)[C@H](C)NC(=O)[C@H](Cc2c[nH]c3ccccc23)NC(=O)[C@H](Cc2ccc(O)cc2)NC(=O)[C@H](Cc2c[nH]cn2)NC1=O)[C@@H](C)O
IC50 [1]: > 160 µM
Activity [2]: 11%
IC50 [3]: 52.9 µM

CSCC[C@H](NC(=O)[C@H](CC(C)C)NC(=O)[C@H](CCC(N)=O)NC(=O)[C@@H]1CCCCNCc2ccccc2CNCCCC[C@H](NC(=O)[C@H](Cc2ccccc2)NC(=O)[C@@H](NC(=O)[C@H](CC(C)C)NC(C)=O)[C@@H](C)O)C(=O)N[C@@H](CCC(=O)O)C(=O)N[C@@H](Cc2ccc(O)cc2)C(=O)N[C@@H](Cc2c[nH]c3ccccc23)C(=O)N1)C(=O)N[C@@H](CCC(N)=O)C(=O)N[C@@H](C)C(=O)N[C@@H](C)C(N)=O
IC50 [1]: > 160 µM
Activity [2]: 11%
IC50 [3]: 105 µM

CC(=O)N[C@@H](CC(C)C)C(=O)N[C@H](C(=O)N[C@@H](Cc1ccccc1)C(=O)N[C@H]1CCCCNCc2ccccc2CNCCCC[C@@H](C(=O)N[C@@H](CO)C(=O)N[C@@H](C)C(=O)N[C@@H](C)C(N)=O)NC(=O)[C@H](CC(C)C)NC(=O)[C@H](CCC(N)=O)NC(=O)[C@H](C)NC(=O)[C@H](Cc2c[nH]c3ccccc23)NC(=O)[C@H](Cc2ccc(O)cc2)NC(=O)[C@H](Cc2c[nH]cn2)NC1=O)[C@@H](C)O
IC50 [1]: > 160 µM
Activity [2]: 11%
IC50 [3]: > 160 µM

CC(C)C[C@H](NC(=O)CCNC(=O)c1ccc2c(c1)C(=O)OC21c2ccc(O)cc2Oc2cc(O)ccc21)C(=O)N[C@H](C(=O)N[C@@H](Cc1ccccc1)C(=O)N[C@H]1CCCCNCc2cccc(c2)CNCCCC[C@@H](C(=O)N[C@@H](CCC(N)=O)C(=O)N[C@@H](CC(C)C)C(=O)N[C@H](C(=O)N[C@@H](CO)C(=O)N[C@@H](C)C(=O)N[C@@H](C)C(N)=O)[C@@H](C)O)NC(=O)[C@H](Cc2c[nH]c3ccccc23)NC(=O)[C@H](Cc2ccc(O)cc2)NC(=O)[C@H](Cc2c[nH]cn2)NC1=O)[C@@H](C)O
Drug uptake [4]: Active
Drug uptake [5]: Active

CC(=O)N[C@@H](CC(C)C)C(=O)N[C@H](C(=O)N[C@@H](Cc1ccccc1)C(=O)N[C@H]1CCCCNCC#CCNCCCC[C@@H](C(=O)N[C@@H](CO)C(=O)N[C@@H](C)C(=O)N[C@@H](C)C(N)=O)NC(=O)[C@H](CC(C)C)NC(=O)[C@H](CCC(N)=O)NC(=O)[C@H](C)NC(=O)[C@H](Cc2c[nH]c3ccccc23)NC(=O)[C@H](Cc2ccc(O)cc2)NC(=O)[C@H](Cc2c[nH]cn2)NC1=O)[C@@H](C)O
IC50 [1]: > 160 µM
Activity [2]: 11%
IC50 [3]: > 160 µM

CSCC[C@H](NC(=O)[C@H](CC(C)C)NC(=O)[C@H](CCC(N)=O)NC(=O)[C@@H]1CCCCNCc2cccc(c2)CNCCCC[C@H](NC(=O)[C@H](Cc2ccccc2)NC(=O)[C@@H](NC(=O)[C@H](CC(C)C)NC(C)=O)[C@@H](C)O)C(=O)N[C@@H](CCC(=O)O)C(=O)N[C@@H](Cc2ccc(O)cc2)C(=O)N[C@@H](Cc2c[nH]c3ccccc23)C(=O)N1)C(=O)N[C@@H](CCC(N)=O)C(=O)N[C@@H](C)C(=O)N[C@@H](C)C(N)=O
IC50 [1]: > 160 µM
Activity [2]: 11%
IC50 [3]: 21.9 µM

CSCC[C@H](NC(=O)[C@H](CC(C)C)NC(=O)[C@H](CCC(N)=O)NC(=O)[C@@H]1CCCCNCC#CCNCCCC[C@H](NC(=O)[C@H](Cc2ccccc2)NC(=O)[C@@H](NC(=O)[C@H](CC(C)C)NC(C)=O)[C@@H](C)O)C(=O)N[C@@H](CCC(=O)O)C(=O)N[C@@H](Cc2ccc(O)cc2)C(=O)N[C@@H](Cc2c[nH]c3ccccc23)C(=O)N1)C(=O)N[C@@H](CCC(N)=O)C(=O)N[C@@H](C)C(=O)N[C@@H](C)C(N)=O
IC50 [1]: 112 µM
Activity [2]: 11%
IC50 [3]: > 160 µM

CSCC[C@H](NC(=O)[C@H](CC(C)C)NC(=O)[C@H](CCC(N)=O)NC(=O)[C@@H]1CCCCNCc2ccc(cc2)CNCCCC[C@H](NC(=O)[C@H](Cc2ccccc2)NC(=O)[C@@H](NC(=O)[C@H](CC(C)C)NC(=O)CCNC(=O)c2ccc3c(c2)C(=O)OC32c3ccc(O)cc3Oc3cc(O)ccc32)[C@@H](C)O)C(=O)N[C@@H](CCC(=O)O)C(=O)N[C@@H](Cc2ccc(O)cc2)C(=O)N[C@@H](Cc2c[nH]c3ccccc23)C(=O)N1)C(=O)N[C@@H](CCC(N)=O)C(=O)N[C@@H](C)C(=O)N[C@@H](C)C(N)=O
Drug uptake [4]: Not_active
